This is an account of results in patent publication US20080031887A1, “Conjugates for inducing targeted immune responses and methods of making and using same” (priority 2006, published 2008).

Format in all cases: in vivo
Experiment [1] relates to TUBO cells. Kind of experiment: TUBO tumors implanted s.c. in BALB-neuT (tolerant) mice, treatment from day 10. The conditions noted are these: 20 μg/injection three times a week for three weeks; for antitumor effect (tumor rejection / tumor growth): i.t. injection, FIG. 1B; for antitumor effect: s.c. injection in the opposite flank, data not shown. The procedure: (§1) FIG. 1 contains graphic representations illustrating that intratumoral injections of CpG-ODN induce rejection of tumors in Balb/c, BALB-neuT and A2×neu mice. Balb/c and BALB-neuT were implanted s.c. with 10^6 TUBO cells, and A2×neu mice were implanted s.c. with 10^6 N202.A2 cells on day zero. On day 10, animals started treatment with i.t. injections of TLR-ligands three times a week (20 μg/injection) for three weeks. […]
(§2) For these experiments, Balb/c (non-tolerant) and BALB-neuT (tolerant) mice implanted with TUBO cells and A2×neu mice implanted with N202.A2 cells were used (it is important to remember that TUBO cells are tumorigenic in Balb/c and BALB-neuT mice, while N202.A2 cells are tumorigenic only in A2×neu mice but not in A2×FVB mice). It is well established that the injection of these ligands results in the activation of DCs, monocytes/macrophages, and B cells, and as a consequence of the activation of these cells, NK cell and T cell responses are stimulated. […] Balb/c and BALB-neuT mice were implanted s.c. with 10^6 TUBO cells, and A2×neu mice were implanted s.c. with 10^6 N202.A2 cells on day zero. On day 10, animals started treatment with s.c. injections of anti-CD40 mAb, Poly I:C, LPS, flagellin, imiquimod, CpG-ODN and control-ODN (as a control) in the opposite flank from where the tumor was injected, three times a week (20 μg/injection) for three weeks. […] It was decided to test whether intratumoral (i.t.) injection of TLR ligands would result in the induction of an antitumor response. The effect of i.t. injections of anti-CD40 mAb, Poly I:C, LPS, flagellin, imiquimod, CpG-ODN and control-ODN (as a control) three times a week (20 μg/injection) for three weeks was tested. […]

The test system of a further experiment is N202.A2 cells. Kind of experiment: N202.A2 tumors implanted s.c. in A2×neu mice, treatment with TLR ligands from day 10. The conditions noted are these: 20 μg/injection three times a week for three weeks; for antitumor effect (tumor rejection / tumor growth): i.t. injection, FIG. 1C; for antitumor effect: s.c. injection in the opposite flank, data not shown. The procedure:
FIG. 1 contains graphic representations illustrating that intratumoral injections of CpG-ODN induce rejection of tumors in Balb/c, BALB-neuT and A2×neu mice. Balb/c and BALB-neuT were implanted s.c. with 10^6 TUBO cells, and A2×neu mice were implanted s.c. with 10^6 N202.A2 cells on day zero. On day 10, animals started treatment with i.t. injections of TLR-ligands three times a week (20 μg/injection) for three weeks.
For these experiments, Balb/c (non-tolerant) and BALB-neuT (tolerant) mice implanted with TUBO cells and A2×neu mice implanted with N202.A2 cells were used (it is important to remember that TUBO cells are tumorigenic in Balb/c and BALB-neuT mice, while N202.A2 cells are tumorigenic only in A2×neu mice but not in A2×FVB mice). It is well established that the injection of these ligands results in the activation of DCs, monocytes/macrophages, and B cells, and as a consequence of the activation of these cells, NK cell and T cell responses are stimulated. […] Balb/c and BALB-neuT mice were implanted s.c. with 10^6 TUBO cells, and A2×neu mice were implanted s.c. with 10^6 N202.A2 cells on day zero. On day 10, animals started treatment with s.c. injections of anti-CD40 mAb, Poly I:C, LPS, flagellin, imiquimod, CpG-ODN and control-ODN (as a control) in the opposite flank from where the tumor was injected, three times a week (20 μg/injection) for three weeks. […] It was decided to test whether intratumoral (i.t.) injection of TLR ligands would result in the induction of an antitumor response. The effect of i.t. injections of anti-CD40 mAb, Poly I:C, LPS, flagellin, imiquimod, CpG-ODN and control-ODN (as a control) three times a week (20 μg/injection) for three weeks was tested.

Experiment [2] deals with TUBO cells. Kind of experiment: TUBO tumors implanted s.c. in Balb/c (non-tolerant) mice, treatment from day 10. The note with it: 20 μg/injection three times a week for three weeks; for antitumor effect (tumor rejection / tumor growth): i.t. injection, FIG. 1A; for antitumor effect: s.c. injection in the opposite flank, data not shown. The procedure: as §1, §2
Evaluation of anti-neu-CpG-ODN (cleavable bond) vs. anti-neu-CpG-ODN (non-cleavable bond). In determining the effectiveness of the conjugates of the present invention, the antitumor effects of anti-neu-CpG-ODN generated with a cleavable bond or non-cleavable bond were evaluated. Anti-neu-CpG-ODN generated with a non-cleavable bond was produced by the reaction pathway shown in FIG. 7A and contained a hydrazone linkage between the Anti-neu antibody and the CpG-ODN. Anti-neu-CpG-ODN generated with a cleavable bond was produced by the reaction pathway shown in FIG. 7B and contained a disulfide cleavable linkage. TUBO cells (1×10^6) were implanted s.c. on day zero on Balb/c. Starting on day 10, animals were injected intratumorally with 30 μg/injection of each of the anti-neu-CpG-ODN molecules three times a week for three weeks.

For `CC(C)Cn1cnc2c(N)nc3ccccc3c21` [imiquimod], the “antitumor effect (tumor rejection / tumor growth)” value in the experiment on TUBO cells [1], in the experiment on N202.A2 cells and in the experiment on TUBO cells [2] was “did not have any effect in controlling the tumor growth” each time. The antitumor effect entry in the experiment with TUBO cells [1], in the experiment on N202.A2 cells and in the experiment with TUBO cells [2] was “no antitumor effect” throughout.

As for Poly I:C, the antitumor effect result with TUBO cells [1], in the experiment on N202.A2 cells and in the experiment with TUBO cells [2] was “no antitumor effect” throughout. Besides, in the experiment with TUBO cells [2], the “antitumor effect (tumor rejection / tumor growth)” value is “induced the rejection of tumors”.

With flagellin, the “antitumor effect (tumor rejection / tumor growth)” value with TUBO cells [1], in the experiment with N202.A2 cells and with TUBO cells [2] was “did not have any effect in controlling the tumor growth” each time. Also, the antitumor effect result in the experiment with TUBO cells [1], in the experiment with N202.A2 cells and with TUBO cells [2] was “no antitumor effect” throughout.
